{"source": "patent US12440496B2", "about": "“Natriuretic peptide receptor a agonists useful for the treatment of cardiometabolic diseases, kidney disease and diabetes” (Merck Sharp & Dohme LLC, priority 2019, dated 2025)", "note": "pEC50: −log10 of the molar value.", "data": [{"target": "T1, hNPRA (Homo sapiens, UniProt P16066)", "T1 construct": "expressed in transfected cells", "T1 sequence (P16066 33-1061)": "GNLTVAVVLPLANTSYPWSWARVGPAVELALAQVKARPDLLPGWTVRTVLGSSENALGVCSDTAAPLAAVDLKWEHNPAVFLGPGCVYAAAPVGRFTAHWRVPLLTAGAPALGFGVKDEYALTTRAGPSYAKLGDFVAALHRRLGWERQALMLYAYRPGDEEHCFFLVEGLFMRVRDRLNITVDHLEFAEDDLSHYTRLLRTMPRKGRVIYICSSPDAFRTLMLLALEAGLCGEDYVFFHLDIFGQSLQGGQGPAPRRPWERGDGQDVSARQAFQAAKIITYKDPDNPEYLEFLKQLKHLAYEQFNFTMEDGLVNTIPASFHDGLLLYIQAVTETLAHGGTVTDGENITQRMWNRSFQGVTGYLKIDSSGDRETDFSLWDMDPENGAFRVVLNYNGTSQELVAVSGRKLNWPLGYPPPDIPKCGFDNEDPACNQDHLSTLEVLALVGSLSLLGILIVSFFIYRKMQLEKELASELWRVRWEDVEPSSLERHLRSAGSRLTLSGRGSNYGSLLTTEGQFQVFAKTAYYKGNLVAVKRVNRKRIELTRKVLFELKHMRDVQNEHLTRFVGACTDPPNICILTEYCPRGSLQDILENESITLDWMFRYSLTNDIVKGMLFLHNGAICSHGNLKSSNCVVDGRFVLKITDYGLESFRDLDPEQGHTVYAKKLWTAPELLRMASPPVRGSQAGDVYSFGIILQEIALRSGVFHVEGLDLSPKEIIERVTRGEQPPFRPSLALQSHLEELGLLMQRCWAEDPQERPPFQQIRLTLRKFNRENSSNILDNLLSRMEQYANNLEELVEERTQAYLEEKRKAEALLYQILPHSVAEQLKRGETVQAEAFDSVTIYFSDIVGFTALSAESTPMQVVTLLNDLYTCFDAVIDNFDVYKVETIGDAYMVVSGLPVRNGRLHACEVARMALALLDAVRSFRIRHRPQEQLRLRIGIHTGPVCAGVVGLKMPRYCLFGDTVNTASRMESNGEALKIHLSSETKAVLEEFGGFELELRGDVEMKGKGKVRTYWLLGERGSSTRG", "test": "NPRA Functional Cell Assay (cGMP HTRF, NPRA HEK JumpIn stable cells)", "format": "cell-based", "details": "cGMP production, 1 hour at 37° C., 10-point dose response", "procedure,_shortened": "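cGMP HTRF read-out after 1 hour compound treatment at 37° C. of human NPRA-expressing HEK JumpIn cells, 1500 cells/well, in buffer with phosphodiesterase inhibitors IBMX and RO20 (100 uM each). Signal converted to [cGMP] by calibration curve; EC50s fitted by 4-parameter logistic; 50 nM h-ANP as positive response.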", "values": [{"smiles": "CC(C)(C)[C@H]1CCc2nc3sc(C(=O)N[C@H](CCNC4CCNC(=O)C4)c4ccc(-c5ccc(=O)[nH]c5)cc4)cc3cc2C1", "note": "(mixture of isomers) [Example 54, (2-oxo-4-piperidyl)-[rac-(3R)-3-[4-(6-oxo-1H-pyridin-3-yl)phenyl]-3-[rac-(6S)-6-tert-butyl-5,6,7,8-tetrahydrothieno[2,3-b]quinoline-2-carbonyl]amino]propyl] ammonium;formate]", "pEC50": 6.12}, {"smiles": "CC(C)(C)[C@H]1CCc2nc3sc(C(=O)N[C@H](CCN4CCCC(O)C4)c4ccc(-c5ccc(=O)[nH]c5)cc4)cc3cc2C1", "note": "(mixture of isomers) [Example 55, rac-(6S)-6-tert-butyl-N-[rac-(1R)-3-(3-hydroxypiperidin-1-ium-1-yl)-1-[4-(6-oxo-1H-pyridin-3-yl)phenyl]propyl]-5,6,7,8-tetrahydrothieno[2,3-b]quinoline-2-carboxamide;formate]", "pEC50": 6.10}, {"smiles": "CC(C)(C)[C@H]1CCc2nc3sc(C(=O)N[C@H](CCN4CCCC(C(=O)O)C4)c4ccc(-c5ccc(=O)[nH]c5)cc4)cc3cc2C1", "note": "(mixture of isomers) [Example 56, 1-[rac-(3R)-3-[4-(6-oxo-1H-pyridin-3-yl)phenyl]-3-[[rac-(6S)-6-tert-butyl-5,6,7,8-tetrahydrothieno[2,3-b]quinoline-2-carbonyl]amino]propyl]piper idin-1-ium-3-carboxylic acid;formate]", "pEC50": 6.09}, {"smiles": "CC(C)(C)[C@H]1CCc2nc3sc(C(=O)N[C@H](CCNC4CNC(=O)C4)c4ccc(-c5ccc(=O)[nH]c5)cc4)cc3cc2C1", "note": "(mixture of isomers) [Example 57, (5-oxopyrrolidin-3-yl)-[rac-(3R)-3-[4-(6-oxo-1H-pyridin-3-yl)phenyl]-3-[[rac-(6S)-6-tert-butyl-5,6,7,8-tetrahydrothieno[2,3-b]quinoline-2-carbonyl]amino]propyl] ammonium;formate]", "pEC50": 6.05}, {"smiles": "CC(C)(C)[C@H]1CCc2nc3sc(C(=O)N[C@H](CCN4CCC(c5nn[nH]n5)C4)c4ccc(-c5ccc(=O)[nH]c5)cc4)cc3cc2C1", "note": "(mixture of isomers) [Example 58, rac-(6S)-6-tert-butyl-N-[rac-(1R)-1-[4-(6-oxo-1H-pyridin-3-yl)phenyl]-3-[3-(2H-tetrazol-5-yl)pyrrolidin-1-ium-1-yl]propyl]-5,6,7,8-tetrahydrothieno[2,3-b]quinoline-2-carboxamide;formate]", "pEC50": 6.04}, {"smiles": "CC(C)(C)[C@H]1CCc2nc3sc(C(=O)N[C@H](CCN4CCC(F)CC4)c4ccc(-c5ccc(=O)[nH]c5)cc4)cc3cc2C1", "note": "(racemic) [Example 59, rac-(6S)-6-tert-butyl-N-[rac-(1R)-3-(4-fluoropiperidin-1-ium-1-yl)-1-[4-(6-oxo-1H-pyridin-3-yl)phenyl]propyl]-5,6,7,8-tetrahydrothieno[2,3-b]quinoline-2-carboxamide;formate]", "pEC50": 6.00}, {"smiles": "CC(C)(C)[C@H]1CCc2nc3sc(C(=O)N[C@H](CCN4CCC(C(F)F)CC4)c4ccc(-c5ccc(=O)[nH]c5)cc4)cc3cc2C1", "note": "(racemic) [Example 60, rac-(6S)-6-tert-butyl-N-[rac-(1R)-3-[4-(difluoromethyl)piperidin-1-ium-1-yl]-1-[4-(6-oxo-1H-pyridin-3-yl)phenyl]propyl]-5,6,7,8-tetrahydrothieno[2,3-b]quinoline-2-carboxamide;formate]", "pEC50": 6.00}, {"smiles": "CC(C)(C)[C@H]1CCc2nc3sc(C(=O)N[C@H](CCN4C[C@@H](O)[C@@H](O)C4)c4ccc(-c5ccc(=O)[nH]c5)cc4)cc3cc2C1", "note": "(racemic) [Example 61, rac-(6S)-6-tert-butyl-N-[rac-(1R)-1-[4-(6-oxo-1H-pyridin-3-yl)phenyl]-3-[rac-(3S,4R)-3,4-dihydroxypyrrolidin-1-ium-1-yl]propyl]-5,6,7,8-tetrahydrothieno[2,3-b]quinoline-2-carboxamide;formate]", "pEC50": 5.98}, {"smiles": "CC(C)(C)[C@H]1CCc2nc3sc(C(=O)N[C@H](CCN[C@@H]4C[C@H](CO)[C@@H](O)[C@H]4O)c4ccc(-c5ccc(=O)[nH]c5)cc4)cc3cc2C1", "note": "(racemic) [Example 62, [rac-(1R,2S,3R,4R)-2,3-dihydroxy-4-(hydroxymethyl)cyclopentyl]-[rac-(3R)-3-[4-(6-oxo-1H-pyridin-3-yl)phenyl]-3-[rac-(6S)-6-tert-butyl-5,6,7,8-tetrahydrothieno[2,3-b]quinoline-2-carbonyl]amino]propyl] ammonium;formate]", "pEC50": 5.95}, {"smiles": "COC1CCN(CC[C@@H](NC(=O)c2cc3cc4c(nc3s2)CC[C@H](C(C)(C)C)C4)c2ccc(-c3ccc(=O)[nH]c3)cc2)CC1", "note": "(racemic) [Example 63, rac-(6S)-6-tert-butyl-N-[rac-(1R)-3-(4-methoxypiperidin-1-ium-1-yl)-1-[4-(6-oxo-1H-pyridin-3-yl)phenyl]propyl]-5,6,7,8-tetrahydrothieno[2,3-b]quinoline-2-carboxamide;formate]", "pEC50": 5.92}, {"smiles": "CN1CC(NCC[C@@H](NC(=O)c2cc3cc4c(nc3s2)CC[C@H](C(C)(C)C)C4)c2ccc(-c3ccc(=O)[nH]c3)cc2)C1", "note": "(racemic) [Example 64, (1-methylazetidin-3-yl)-[rac-(3R)-3-[4-(6-oxo-1H-pyridin-3-yl)phenyl]-3-[[rac-(6S)-6-tert-butyl-5,6,7,8-tetrahydrothieno[2,3-b]quinoline-2-carbonyl]amino]propyl] ammonium;formate]", "pEC50": 5.91}, {"smiles": "CC1(O)CN(CC[C@@H](NC(=O)c2cc3cc4c(nc3s2)CC[C@H](C(C)(C)C)C4)c2ccc(-c3ccc(=O)[nH]c3)cc2)C1", "note": "(racemic) [Example 65, rac-(6S)-6-tert-butyl-N-[rac-(1R)-3-(3-hydroxy-3-methyl-azetidin-1-ium-1-yl)-1-[4-(6-oxo-1H-pyridin-3-yl)phenyl]propyl]-5,6,7,8-tetrahydrothieno[2,3-b]quinoline-2-carboxamide;formate]", "pEC50": 5.89}, {"smiles": "COCCN1CCN(CC[C@@H](NC(=O)c2cc3cc4c(nc3s2)CC[C@H](C(C)(C)C)C4)c2ccc(-c3ccc(=O)[nH]c3)cc2)CC1", "note": "(racemic) [Example 66, rac-(6S)-6-tert-butyl-N-[rac-(1R)-3-[4-(2-methoxyethyl)piperazin-1-yl]-1-[4-(6-oxo-1H-pyridin-3-yl)phenyl]propyl]-5,6,7,8-tetrahydrothieno[2,3-b]quinoline-2-carboxamide]", "pEC50": 5.88}, {"smiles": "CC(C)(C)[C@H]1CCc2nc3sc(C(=O)N[C@H](CCNC4CCNC4=O)c4ccc(-c5ccc(=O)[nH]c5)cc4)cc3cc2C1", "note": "(mixture of isomers) [Example 67, (2-oxopyrrolidin-3-yl)-[rac-(3R)-3-[4-(6-oxo-1H-pyridin-3-yl)phenyl]-3-[rac-(6S)-6-tert-butyl-5,6,7,8-tetrahydrothieno[2,3-b]quinoline-2-carbonyl]amino]propyl] ammonium;formate]", "pEC50": 5.75}, {"smiles": "CC(C)(C)[C@H]1CCc2nc3sc(C(=O)N[C@H](CCN4CCC(C#N)CC4)c4ccc(-c5ccc(=O)[nH]c5)cc4)cc3cc2C1", "note": "(racemic) [Example 68, rac-(6S)-6-tert-butyl-N-[rac-(1R)-3-(4-cyanopiperidin-1-ium-1-yl)-1-[4-(6-oxo-1H-pyridin-3-yl)phenyl]propyl]-5,6,7,8-tetrahydrothieno[2,3-b]quinoline-2-carboxamide;formate]", "pEC50": 5.74}, {"smiles": "CC(C)(C)[C@H]1CCc2nc3sc(C(=O)N[C@H](CCN[C@H]4COC[C@@H]4O)c4ccc(-c5ccc(=O)[nH]c5)cc4)cc3cc2C1", "note": "(racemic) [Example 69, [rac-(3S,4R)-4-hydroxytetrahydrofuran-3-yl]-[rac-(3R)-3-[4-(6-oxo-1H-pyridin-3-yl)phenyl]-3-[[rac-(6S)-6-tert-butyl-5,6,7,8-tetrahydrothieno[2,3-b]quinoline-2-carbonyl]amino]propyl] ammonium;formate]", "pEC50": 5.74}, {"smiles": "CN(C)[C@H]1CN(CC[C@@H](NC(=O)c2cc3cc4c(nc3s2)CC[C@H](C(C)(C)C)C4)c2ccc(-c3ccc(=O)[nH]c3)cc2)C[C@@H]1O", "note": "(racemic) [Example 70, rac-(6S)-6-tert-butyl-N-[rac-(1R)-1-[4-(6-oxo-1H-pyridin-3-yl)phenyl]-3-[rac-(3S,4S)-3-(dimethylamino)-4-hydroxy-pyrrolidin-1-ium-1-yl]propyl]-5,6,7,8-tetrahydrothieno[2,3-b]quinoline-2-carboxamide;formate]", "pEC50": 5.71}]}]}
